Data published in patent US10004701B2, “Methods and compositions for treating infection” (UNIVERSITY OF ROCHESTER, priority 2012, dated 2018).
Converted amounts (≈) assume the structure as drawn. Like-named read-outs stand apart in the source and are kept apart here.

Key:
[1] = test system: Enterococcus faecium 824-05; experiment: MIC testing; assay type: cell-based
Staphylococcus aureus = experiment: MIC testing; assay type: cell-based
[2] = test system: Klebsiella pneumoniae cKP1; experiment: MIC testing; assay type: cell-based
[3] = test system: Acinetobacter baumannii 98-37-09; experiment: MIC testing; assay type: cell-based
[4] = test system: Pseudomonas aeruginosa PA01; experiment: MIC testing; assay type: cell-based
[5] = test system: Enterobacter cloacae PMD1001; experiment: MIC testing; assay type: cell-based
Escherichia coli 8295 [6] = experiment: MIC testing; assay type: cell-based
[7] = test system: Klebsiella pneumoniae cKP1; experiment: AK assay 96-well format; assay type: cell-based
[8] = test system: Pseudomonas aeruginosa PA01; experiment: AK assay 96-well format; assay type: cell-based
[9] = test system: Enterobacter cloacae PMD1001; experiment: AK assay 96-well format; assay type: cell-based
Escherichia coli 8295 [10] = experiment: AK assay 96-well format; assay type: cell-based
[11] = test system: S. aureus SCV strain UAMS-1112; experiment: Small-colony variant AK assay (with plating); assay type: cell-based, Staphylococcus aureus
Description: Thirty-six-hour cultures of S. aureus strain UAMS-1112 were used to inoculate (1:100 dilution) 100 ml of fresh MH medium and grown at 37° C. on a rotary shaker at 225 rpm to an optical density (600 nm) of 0.1 to 0.2, corresponding to ˜1×10^6 CFU ml^−1. Cells were pelleted by centrifugation and resuspended in 2 ml of fresh MH medium. Ninety-eight microliters of MH medium containing 5×10^6 bacteria and 2 μl of the indicated antibiotic were added to individual wells of a white-walled, 96-well microtiter plate. Well components were mixed by pipetting and incubated at 37° C. for 3 h. The plate was equilibrated to room temperature for 30 min. Next, 100 μl of ToxiLight AK reagent was added to each well, followed by incubation at room temperature for 30 min, and luminescence was measured using a SpectraMax M5 plate reader.
SCV are slow-growing populations of bacterial species that have been hypothesized to cause latent or recurrent infections and are tolerant of standard antibiotic treatment regimens. Based on the aberrant SCV growth characteristics, typical growth-based HTS assays would be difficult to employ. Accordingly, the ability of the AK assay to identify agents that kill S. aureus SCV strain UAMS-1112 was tested. […].

[12] = test system: S. aureus strain UAMS-1 static biofilms; experiment: AK assay of established biofilms (with plating); assay type: cell-based, Staphylococcus aureus; settings: 10×MIC; for decrease in biofilm-associated bacteria / biofilm cell viability (plating): S. aureus UAMS-1 48-h biofilm, vs untreated
[13] = test system: Enterococcus faecium 824-05; experiment: AK assay 96-well format; assay type: cell-based
[14] = test system: Acinetobacter baumannii 98-37-09; experiment: AK assay 96-well format; assay type: cell-based; settings: for Fold increase in AK signal: Acinetobacter baumannii 98-37-09
[15] = test system: A. baumannii strain 98-37-09 static biofilms; experiment: AK assay of established biofilms (with plating); assay type: cell-based, Acinetobacter baumannii; settings: A. baumannii 98-37-09 biofilm; 10×MIC overnight; vs untreated
Description: Biofilms were grown as previously described (Beenken et al. Infect. Immun. 71: 4206-4211 (2003); Musken et al. Nat. Protoc. 5: […] (2010); Tomaras et al. Microbiology 149: 3473-3483 (2003)). Briefly, P. aeruginosa and A. baumannii were cultured overnight in Luria-Bertani medium and then used to seed 96-well, flat-bottom plates. Plates were incubated at 37° C. in a humidified incubator for 48 h to allow the formation of static biofilms. Nonadherent cells were removed by aspiration and washing with sterile phosphate-buffered saline (PBS). […] Following treatment, 100 μl of each biofilm supernatant was transferred to 96-well, white-walled plates, 100 μl of ToxiLight AK reagent was added to each well, mixtures were incubated for 30 min at room temperature, and luminescence was measured using a SpectraMax M5 plate reader. Biofilm-associated bacteria were enumerated by resuspending each biofilm in fresh PBS and plating. […] Established S. aureus biofilms were washed once with PBS and then treated with a 100 μl of ToxiLight lysis buffer for 3 h, after which the amount of AK released into supernatants was measured, as described above.
Following overnight antibiotic treatment, biofilm-associated bacteria were enumerated by plating, and the corresponding supernatants were analyzed by the AK assay.

E. faecium = experiment: AK assay 384-well format, Prestwick library screening; assay type: cell-based, Enterococcus faecium; settings: E. faecium; 50 μM, cutoff 3-fold increase in AK
E. faecium strain 824-05 = experiment: Galleria mellonella model of E. faecium infection; assay type: in vivo; settings: larval survival 48 h postinoculation
[16] = Staphylococcus aureus USA300-0114, read-out: MIC
[17] = Klebsiella pneumoniae cKP1, read-out: MIC
[18] = 983709, Acinetobacter baumannii 98-37-09, read-out: MIC
[19] = S. aureus UAMS-1112, 1× or 10×MIC for 3 h
[20] = 82405, Enterococcus faecium 824-05, read-out: MIC

With C[C@@H](O)[C@H]1C(=O)N2C(C(=O)O)=C(S[C@@H]3CN[C@H](C(=O)N(C)C)C3)[C@H](C)[C@H]12 [Meropenem, meropenem] the MIC ([1]; Enterococcus faecium, 82405) was > 256 µg/mL, the MIC (Staphylococcus aureus; Staphylococcus aureus) was 2 µg/mL (≈ 5.22 µM) and the MIC (Staphylococcus aureus; [16]) was 4 µg/mL (≈ 10.4 µM). For the same compound, the MIC [2, 17] was 2 µg/mL (≈ 5.22 µM), the MIC [3, 18] was 2 µg/mL (≈ 5.22 µM) and the MIC ([4]; read-out: MIC) was 2 µg/mL (≈ 5.22 µM). For the same compound, the MIC ([5]; read-out: MIC) was 2 µg/mL (≈ 5.22 µM), the MIC (Escherichia coli 8295 [6]; read-out: MIC) was 2 µg/mL (≈ 5.22 µM) and the “Fold increase in AK signal” value ([7]; treatment 1.0×MIC) was 220 fold. The “Fold increase in AK signal” value ([8]; treatment 0.5×MIC) was 45 fold, the “Fold increase in AK signal” value ([8]; treatment 1.0×MIC) was 39 fold and the “Fold increase in AK signal” value ([9]; treatment 0.5×MIC) was 99 fold. For the same compound, the “Fold increase in AK signal” value ([9]; treatment 1.0×MIC) was 296 fold, the “Fold increase in AK signal” value (Escherichia coli 8295 [10]; treatment 0.5×MIC) was 60 fold and the “Fold increase in AK signal” value (Escherichia coli 8295 [10]; treatment 1.0×MIC) was 85 fold. For the same compound, the “decrease in SCV viability (plating)” value [11, 19] was 0.5 log and the “increase in AK signal compared to mock-treated cells” value (from here on “increase … to mock-treated cells”) [11, 19] was 2.5 fold.

In the case of CC(C)(C)c1ccc(C(O)CCCN2CCC(C(O)(c3ccccc3)c3ccccc3)CC2)cc1 (stereo not shown) [Terfenadine], the MIC (Staphylococcus aureus; Staphylococcus aureus, S. aureus UAMS-1112 (small-colony variant), read-out: MIC) is reported as 2 µg/mL (≈ 4.24 µM), the MIC [3, 18] is reported as 64 µg/mL (≈ 136 µM) and the “increase in AK release” value ([12]; 48-h S. aureus UAMS-1 biofilms) is reported as 2.7 fold. For the same compound, the “decrease in biofilm-associated bacteria / biofilm cell viability (plating)” value [12] was 1.1 log and the “increase … to mock-treated cells” value ([11]; S. aureus small-colony-variant UAMS-1112, 10×MIC) was 3.3 fold.

CN[C@H](CC(C)C)C(=O)N[C@H]1C(=O)N[C@@H](CC(N)=O)C(=O)N[C@H]2C(=O)N[C@H]3C(=O)N[C@H](C(=O)N[C@H](C(=O)O)c4cc(O)cc(O)c4-c4cc3ccc4O)[C@H](O)c3ccc(c(Cl)c3)Oc3cc2cc(c3O[C@@H]2O[C@H](CO)[C@@H](O)[C@H](O)[C@H]2O[C@H]2C[C@](C)(N)[C@H](O)[C@H](C)O2)Oc2ccc(cc2Cl)[C@H]1O [Vancomycin, vancomycin] was tested, and the MIC ([1]; Enterococcus faecium, 82405) was 2 µg/mL (≈ 1.38 µM), the MIC (Staphylococcus aureus; Staphylococcus aureus) was 2 µg/mL (≈ 1.38 µM) and the MIC (Staphylococcus aureus; Staphylococcus aureus, USA300) was 1 µg/mL (≈ 0.69 µM). For the same compound, the MIC ([2]; Klebsiella pneumoniae, CKP1) was > 256 µg/mL, the MIC ([3]; Acinetobacter baumannii, 983709) was 64 µg/mL (≈ 44.2 µM) and the MIC [4] was > 256 µg/mL. For the same compound, the MIC [5] was > 256 µg/mL, the MIC (Escherichia coli 8295 [6]) was 16 µg/mL (≈ 11 µM) and the “Fold increase in AK signal” value ([13]; treatment 0.5×MIC) was 1 fold. For the same compound, the “Fold increase in AK signal” value ([13]; treatment 1.0×MIC) was 2 fold, the “Fold increase in AK signal” value (Escherichia coli 8295 [10]; treatment 0.5×MIC) was 1 fold and the “Fold increase in AK signal” value (Escherichia coli 8295 [10]; treatment 1.0×MIC) was 2 fold. The “decrease in SCV viability (plating)” value [11, 19] was “no effect” and the “increase … to mock-treated cells” value [11, 19] was “no change”.

CN(C)c1ccc(O)c2c1C[C@H]1C[C@H]3[C@H](N(C)C)C(O)=C(C(N)=O)C(=O)[C@@]3(O)C(O)=C1C2=O [Minocycline, minocycline] showed an MIC [1, 20] of 1 µg/mL (≈ 2.19 µM), an MIC (Staphylococcus aureus; Staphylococcus aureus) of 8 µg/mL (≈ 17.5 µM) and an MIC (Staphylococcus aureus; [16]) of 1 µg/mL (≈ 2.19 µM). It also gave an MIC [2, 17] of 64 µg/mL (≈ 140 µM), an MIC [3, 18] of 1 µg/mL (≈ 2.19 µM) and an MIC ([4]; read-out: MIC) of 32 µg/mL (≈ 69.9 µM). The MIC ([5]; read-out: MIC) was 4 µg/mL (≈ 8.74 µM), the MIC (Escherichia coli 8295 [6]; read-out: MIC) was 16 µg/mL (≈ 35 µM) and the “Fold increase in AK signal” value ([13]; treatment 0.5×MIC) was 3 fold. For the same compound, the “Fold increase in AK signal” value ([13]; treatment 1.0×MIC) was 4 fold, the “Fold increase in AK signal” value ([7]; treatment 0.5×MIC) was 1 fold and the “Fold increase in AK signal” value ([7]; treatment 1.0×MIC) was 1 fold. For the same compound, the “Fold increase in AK signal” value ([8]; treatment 0.5×MIC) was 1 fold, the “Fold increase in AK signal” value ([8]; treatment 1.0×MIC) was 6 fold and the “Fold increase in AK signal” value ([9]; treatment 0.5×MIC) was 4 fold. For the same compound, the “Fold increase in AK signal” value ([9]; treatment 1.0×MIC) was 9 fold, the “Fold increase in AK signal” value (Escherichia coli 8295 [10]; treatment 0.5×MIC) was 4 fold and the “Fold increase in AK signal” value (Escherichia coli 8295 [10]; treatment 1.0×MIC) was 38 fold.

For CC(=O)NC[C@H]1CN(c2ccc(N3CCOCC3)c(F)c2)C(=O)O1 [Linezolid, linezolid], the MIC [1, 20] was 16 µg/mL (≈ 47.4 µM), the MIC (Staphylococcus aureus; Staphylococcus aureus) was 2 µg/mL (≈ 5.93 µM) and the MIC (Staphylococcus aureus; [16]) was 2 µg/mL (≈ 5.93 µM). For the same compound, the MIC ([2]; Klebsiella pneumoniae, CKP1) was > 256 µg/mL, the MIC [3, 18] was 256 µg/mL (≈ 759 µM) and the MIC [4] was > 256 µg/mL. For the same compound, the MIC [5] was > 256 µg/mL, the MIC (Escherichia coli 8295 [6]) was > 256 µg/mL and the “Fold increase in AK signal” value ([13]; treatment 0.5×MIC) was 2 fold. The “Fold increase in AK signal” value ([13]; treatment 1.0×MIC) was 2 fold.

For colistin, the MIC ([1]; Enterococcus faecium 824-05) was >256 µg/mL, the MIC (Staphylococcus aureus; Staphylococcus aureus RN4220) was >256 µg/mL and the MIC (Staphylococcus aureus; Staphylococcus aureus USA300-0114) was >256 µg/mL. It also gave an MIC ([2]; Klebsiella pneumoniae cKP1) of 8 µg/mL, an MIC ([3]; Acinetobacter baumannii 98-37-09) of 4 µg/mL and an MIC [4] of 4 µg/mL. For the same compound, the MIC [5] was 2 µg/mL, the MIC (Escherichia coli 8295 [6]) was 8 µg/mL and the “Fold increase in AK signal” value ([7]; treatment 0.5×MIC) was 34 fold. The “Fold increase in AK signal” value ([7]; treatment 1.0×MIC) was 33 fold, the AK release ([14]; A. baumannii 98-37-09, 0.25×, 0.5×, and 1×MIC) was “robustly detected” and the “Fold increase in AK signal” value ([14]; treatment 0.5×MIC) was 17 fold. The “Fold increase in AK signal” value ([14]; treatment 1.0×MIC) was 49 fold, the “Fold increase in AK signal” value ([8]; treatment 0.5×MIC) was 5 fold and the “Fold increase in AK signal” value ([8]; treatment 1.0×MIC) was 12 fold. The “Fold increase in AK signal” value ([9]; treatment 0.5×MIC) was 10 fold, the “Fold increase in AK signal” value ([9]; treatment 1.0×MIC) was 32 fold and the “Fold increase in AK signal” value (Escherichia coli 8295 [10]; treatment 0.5×MIC) was 15 fold. The “Fold increase in AK signal” value (Escherichia coli 8295 [10]; treatment 1.0×MIC) was 22 fold and the “decrease in biofilm-associated bacteria (plating)” value [15] was 1.8 log.

For CC/C(=C(\c1ccccc1)c1ccc(OCCN(C)C)cc1)c1ccccc1 [Tamoxifen, tamoxifen], the MIC [1, 20] was 8 µg/mL (≈ 21.5 µM), the “activity in AK Prestwick screen” value (E. faecium) was “identified” and the “higher survival than vehicle-treated controls” value (E. faecium strain 824-05; 80 mg kg-1 at 2 h and 24 h) was 4.2 fold. The “higher survival than vehicle-treated controls” value (E. faecium strain 824-05; 160 mg kg-1 at 2 h and 24 h) was 7 fold.

O=C(O)c1cn(C2CC2)c2cc(N3CCNCC3)c(F)cc2c1=O [Ciprofloxacin, ciprofloxacin] was tested, and the “decrease in biofilm-associated bacteria / biofilm cell viability (plating)” value [12] was 0.7 log, the “decrease in SCV viability (plating)” value [11, 19] was “no effect” and the “increase … to mock-treated cells” value [11, 19] was “no change”.
